PMC11337160, “Chirality and pH Influence the Self-Assembly of Antimicrobial Lipopeptides with Diverse Nanostructures” (ACS Applied Bio Materials, 2024)
Converted amounts (≈) assume the structure as drawn. Non-standard residues stand in square brackets, D forms with d. Residues, ends and D or L forms follow the SMILES beside them. *: point of attachment. Palmitoyl = CCCCCCCCCCCCCCCC(=O)*

Experiments:
[1] = system: Salmonella enterica NCTC 5188; test: Minimum bactericidal concentration (MBC); assay type: cell-based; conditions: 5 × 10^6 CFU/mL in MHB, lipopeptide 0-1000 μg/mL, 18 h at 37 °C, 10 μL spot-inoculated onto LB agar, overnight 37 °C
Experimental: (§1) Two Gram-negative strains (Escherichia coli K12 and Salmonella enterica NCTC 5188) and one Gram-positive strain (Staphylococcus aureus ATCC 12600) were employed to evaluate the potential bactericidal activity of tested lipopeptides. A single colony from each strain, pre-streaked onto an LB (lysogeny broth) agar plate, was inoculated into 5 mL of LB broth and incubated at 37 °C with shaking (250 rpm) for 18 h. Then, the bacterial culture was adjusted to 5 × 10^6 CFU mL^–1 mid-log phase in Mueller-Hinton broth (MHB), and aliquots were transferred to individual wells of a U-bottom 96-well microplate with increasing concentrations of lipopeptides (0–1000 μg mL^–1). Included positive and negative controls consisted of 0.97 μg mL^–1 ciprofloxacin or 1× PBS in MHB, respectively. After 18 h of incubation at 37 °C, 10 μL from each well was spot-inoculated onto LB agar and plates were further incubated at 37 °C overnight to assess the MBC which refers to the lowest concentration of an antibacterial agent required to kill bacteria (here denoted by colony growth on the plate).
(§2) Figure 9 Determination of MBC of lipopeptides P1, P1D, P2, and P2D. 10 μL aliquots from broth microdilution plates were spot-inoculated onto LB agar plates. The MBC refers to the lowest concentration of an antibacterial agent required to completely kill bacteria shown by the lack of colony formation. […] Positive control (+) 0.97 μg mL^–1 ciprofloxacin; negative control (−) 1X PBS.

Escherichia coli K12 = assay type: cell-based; conditions: K12, 18 h
Experimental: as §1, §2

[2] = system: Staphylococcus aureus ATCC 12600; assay type: cell-based; conditions: ATCC 12600, 18 h
Experimental: as §1, §2

[3] = Critical aggregation concentration (CAC) by Thioflavin T fluorescence; assay type: physicochemical; conditions: ThT fluorescence probe (5 × 10^–4 wt % ThT), aqueous solution pH 8, 25 °C, λex 440 nm, emission 487 nm, breakpoint of I/I0 versus concentration
Experimental: For the fluorescence experiments, a Varian Cary Eclipse spectrofluorometer was used, and the samples were placed in 4 mm inner-width quartz cuvettes. For experimental settings, excitation and emission bandwidths of 2.5 nm were used. All the experiments were carried out at 25 °C. The CAC value for all the samples was determined by fluorescence experiments with Thioflavin T (ThT). ThT is well known to bind to amyloid fibrils, and can be used to determine CAC values.[44]−[46] First a stock solution (5 × 10^–4 wt %) ThT solution was prepared and using this solution, various concentrations of samples were prepared. The scan of the fluorescence spectra (λex = 440 nm) was taken from 460 to 670 nm.
The CAC value of the samples was calculated by plotting I/I0 versus concentration (in wt %). Here I0 is the maximum intensity for the control, i.e., ThT solution without the sample, and I signifies the maximum fluorescence intensity of ThT at a given concentration of lipopeptide.
To determine the CAC values of these lipopeptides, fluorescence probe assays using Thioflavin T (ThT) were performed, this dye being sensitive to the formation of β-sheet structures.[44]−[46] Emission spectra of the four lipopeptides were collected at different concentrations after excitation at 440 nm. At higher concentrations, an emission peak at 487 nm is visible. […] The lower CAC values for P2 and P2D are due to the higher hydrophobicity of tryptophan compared to tyrosine. […] However, since aggregation at the two different pH values gives rise to distinct nanostructures, this may be coincidental.

[4] = Cryo-TEM imaging of self-assembled nanostructures; assay type: physicochemical; conditions: 1 wt % aqueous solution, pH 8
Experimental: The Cryo-TEM imaging was performed using a field emission cryo-electron microscope (JEOL JEM-3200FSC), operating at 200 kV. To take the TEM images bright field mode with a zero-loss energy filter (omega type) was used, with a slit width of 20 eV. A Gatan UltraScan 4000 CCD camera was used to record the micrographs. During the entire experiment, the sample was kept at −187 °C. An automated FEI Vitrobot device was used to blot and vitrify samples on Quantifoil 3.5:1 holey carbon copper grids with a hole size of 3.5 μm. Before taking the images, grids were first plasma cleaned using a Gatan Solarus 9500 plasma cleaner, followed by transferring to the environmental chamber of a FEI Vitrobot at room temperature and 100% humidity. For sample spotting on the grid, 3 μL of sample solution was taken and spread on the grid. It was blotted twice and then vitrified in a 1:1 mixture of liquid ethane and propane at a temperature of −180 °C. The grids with vitrified sample solution were maintained at liquid nitrogen temperature and then cryo-transferred to the microscope.
The self-assembled nanostructure of these lipopeptides at acidic pH was investigated at the lower pH of 4.6 in our recent paper,[43] and here we report the unexpected observation of distinct self-assembled nanostructure of these lipopeptides at a higher pH. For cryo-TEM imaging at basic pH, 1 wt % aqueous solution of lipopeptides at pH 8 were prepared, this concentration being above the measured CAC values for these lipopeptides. […] In contrast, the TEM images of all the lipopeptides at pH 4.6 show small spherical micelles with a mean diameter of 4–9 nm (as reported previously,[43] with additional images in Figure S5).

E. coli [5] = conditions: MIC values were reported previously; cited from earlier work
Source text: Table 1 Antimicrobial, Cytotoxic, and Selectivity Index Activities of Lipopeptides ^a | column: MIC (μg/mL) / E. coli

S. enterica = conditions: MIC values were reported previously; cited from earlier work
Source text: Table 1 Antimicrobial, Cytotoxic, and Selectivity Index Activities of Lipopeptides ^a | column: MIC (μg/mL) / S. enterica

S. aureus = conditions: MIC values were reported previously; cited from earlier work
Source text: Table 1 Antimicrobial, Cytotoxic, and Selectivity Index Activities of Lipopeptides ^a | column: MIC (μg/mL) / S. aureus

E. coli [6] = test: Live/Dead staining, membrane integrity (epifluorescence); assay type: cell-based; conditions: two-fold MIC of lipopeptide, 1 h at 37 °C, compared to P1 and P1D
Source text: A bacteria Live/Dead staining kit (PromoKine) was employed to gain insight into the possible membrane disruption activity of tested lipopeptides. In summary, we used two color fluorescence dyes with varying ability to cross the cytoplasmatic membranes of bacteria. DMAO is a green-fluorescent nucleic acid dye which stains the cell membranes of both live and dead bacteria, while the red fluorescing EthD-III dye selectively stains dead bacteria with compromised membranes. With appropriately calculated volumes of dyes, live viable bacterial cells fluoresce green whilst dead compromised cells fluoresce red. For this assessment, a total of 5 × 10^6 mL^–1 exponential phase bacterial cells were incubated with two-fold MIC of lipopeptides for 1 h at 37 °C. Negative and positive controls consisted respectively of the addition of PBS and Triton-X100 (1%) to replace lipopeptides. Afterwards, the sample was centrifuged at 1000g for 10 min. The pellet was resuspended in 100 μL of 0.85% buffered NaCl with the epifluorescence dyes, following the kit instructions, and incubated for 15 min at room temperature. The samples were examined under a Nikon Eclipse Ti2 inverted microscope.
Figure 10 Membrane permeabilization of E. coli (A) and S. aureus (B) was observed through epifluorescence microscopy. […]

SMILES | MBC S. enterica [1] [µg/mL] | MBC E. coli (Escherichia coli K12) [µg/mL] | MBC S. aureus [2] [µg/mL] | CAC (critical aggregation concentration) [3] [wt %] | self-assembled nanostructure (cryo-TEM) [4] | MIC E. coli (E. coli [5]) [µg/mL] | MIC S. enterica (S. enterica) [µg/mL] | MIC S. aureus (S. aureus) [µg/mL] | mean diameter of nanostructure (cryo-TEM) [4] [nm] | formation of bacterial cell aggregates, E. coli (E. coli [6])
CCCCCCCCCCCCCCCC(=O)N[C@@H](Cc1ccc(O)cc1)C(=O)N[C@H](CCCCN)C(=O)N[C@H](CCCCN)C(N)=O [P1D] (Palmitoyl-Tyr-[dK]-[dK]-NH2) | 125 (≈ 185 µM) | 62.5 (≈ 92.6 µM) | 250 (≈ 370 µM) | 0.034 ± 0.005 | twisted nanotape structures of variable width | 15.63 to 31.25 | 31.25 (≈ 46.3 µM) | 31.25 (≈ 46.3 µM) |  | 
CCCCCCCCCCCCCCCC(=O)N[C@@H](Cc1ccc(O)cc1)C(=O)N[C@@H](CCCCN)C(=O)N[C@@H](CCCCN)C(N)=O [P1] (Palmitoyl-Tyr-Lys-Lys-NH2) | 125 (≈ 185 µM) | 62.5 (≈ 92.6 µM) | 62.5 (≈ 92.6 µM) | 0.040 ± 0.003 | long intertwined nanofibers | 15.63 to 31.25 | 31.25 to 62.5 | 31.25 to 62.5 | 11.7 ± 3.3 | 
CCCCCCCCCCCCCCCC(=O)N[C@@H](Cc1c[nH]c2ccccc12)C(=O)N[C@H](CCCCN)C(=O)N[C@H](CCCCN)C(N)=O [P2D] (Palmitoyl-Trp-[dK]-[dK]-NH2) | 125 (≈ 179 µM) | 62.5 (≈ 89.5 µM) | 62.5 (≈ 89.5 µM) | 0.026 ± 0.004 | nanotube structures | 31.25 to 62.5 | 62.5 (≈ 89.5 µM) | 31.25 to 62.5 | 32.8 ± 4.5 | cell aggregates (clusters) was observed
CCCCCCCCCCCCCCCC(=O)N[C@@H](Cc1c[nH]c2ccccc12)C(=O)N[C@@H](CCCCN)C(=O)N[C@@H](CCCCN)C(N)=O [P2] (Palmitoyl-Trp-Lys-Lys-NH2) | 250 (≈ 358 µM) | 250 (≈ 358 µM) | 250 (≈ 358 µM) | 0.026 ± 0.004 | long intertwined nanofibers | 15.63 to 62.5 | 62.5 to 250 | 31.25 to 62.5 | 6.4 ± 2 | cell aggregates (clusters) was observed
